Calls of active or inactive are those of the source. No cut-off for these calls is given here.
Key:
Huh-7 [1] = test: Induction of mitochondrial membrane potential changes in human Huh-7 cells assessed as decrease in TMRE positive cells at 80 nM incubated for 24 hrs by TMRE staining based flow cytometry; assay type: functional, cell-based
Huh-7 [2] = test: Antiproliferative activity against human Huh-7 cells treated for 72 hrs by MTT assay; assay type: functional, cell-based; conditions: Huh-7, 72 h
[3] = target: T1, DNA topoisomerase 1 (Homo sapiens) (UniProt P11387); test: Inhibition of Top1 (unknown origin) assessed as inhibition of relaxation of supercoiled pBR322 plasmid DNA at 50 uM incubated for 25 mins by ethidium bromide staining based agarose gel electrophoresis analysis relative to control
T1 sequence (whole entry): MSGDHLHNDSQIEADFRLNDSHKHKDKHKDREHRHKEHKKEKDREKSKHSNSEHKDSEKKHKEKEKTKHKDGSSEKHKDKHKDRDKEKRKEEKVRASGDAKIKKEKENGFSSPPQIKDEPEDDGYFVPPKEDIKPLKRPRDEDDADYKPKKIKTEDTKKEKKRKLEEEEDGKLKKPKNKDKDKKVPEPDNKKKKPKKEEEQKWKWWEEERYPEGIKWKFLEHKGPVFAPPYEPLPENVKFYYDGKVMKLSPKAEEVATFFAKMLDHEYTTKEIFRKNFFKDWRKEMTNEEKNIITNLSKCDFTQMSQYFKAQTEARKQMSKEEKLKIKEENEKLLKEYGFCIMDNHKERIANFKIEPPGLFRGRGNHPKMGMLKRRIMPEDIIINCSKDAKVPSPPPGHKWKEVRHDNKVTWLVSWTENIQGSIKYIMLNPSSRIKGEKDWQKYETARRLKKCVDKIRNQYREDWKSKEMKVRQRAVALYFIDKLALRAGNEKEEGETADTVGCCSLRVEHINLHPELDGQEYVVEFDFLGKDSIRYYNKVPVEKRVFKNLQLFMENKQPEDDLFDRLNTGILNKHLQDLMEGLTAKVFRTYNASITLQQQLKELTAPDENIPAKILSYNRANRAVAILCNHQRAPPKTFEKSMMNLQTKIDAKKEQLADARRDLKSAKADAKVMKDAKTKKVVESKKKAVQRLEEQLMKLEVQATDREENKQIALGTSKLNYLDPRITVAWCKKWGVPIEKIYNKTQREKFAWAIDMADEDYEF

[4] = target: DNA topoisomerase 2-alpha (Homo sapiens) (UniProt P11388); test: Inhibition of human Top2-alpha expressed in baculovirus assessed as inhibition of relaxation of supercoiled pBR322 plasmid DNA at 100 uM incubated for 30 mins in presence of ATP by ethidium bromide staining based agarose gel electrophoresis analysis relative to control
DNA topoisomerase 2-alpha (Homo sapiens), sequence (P11388 whole entry): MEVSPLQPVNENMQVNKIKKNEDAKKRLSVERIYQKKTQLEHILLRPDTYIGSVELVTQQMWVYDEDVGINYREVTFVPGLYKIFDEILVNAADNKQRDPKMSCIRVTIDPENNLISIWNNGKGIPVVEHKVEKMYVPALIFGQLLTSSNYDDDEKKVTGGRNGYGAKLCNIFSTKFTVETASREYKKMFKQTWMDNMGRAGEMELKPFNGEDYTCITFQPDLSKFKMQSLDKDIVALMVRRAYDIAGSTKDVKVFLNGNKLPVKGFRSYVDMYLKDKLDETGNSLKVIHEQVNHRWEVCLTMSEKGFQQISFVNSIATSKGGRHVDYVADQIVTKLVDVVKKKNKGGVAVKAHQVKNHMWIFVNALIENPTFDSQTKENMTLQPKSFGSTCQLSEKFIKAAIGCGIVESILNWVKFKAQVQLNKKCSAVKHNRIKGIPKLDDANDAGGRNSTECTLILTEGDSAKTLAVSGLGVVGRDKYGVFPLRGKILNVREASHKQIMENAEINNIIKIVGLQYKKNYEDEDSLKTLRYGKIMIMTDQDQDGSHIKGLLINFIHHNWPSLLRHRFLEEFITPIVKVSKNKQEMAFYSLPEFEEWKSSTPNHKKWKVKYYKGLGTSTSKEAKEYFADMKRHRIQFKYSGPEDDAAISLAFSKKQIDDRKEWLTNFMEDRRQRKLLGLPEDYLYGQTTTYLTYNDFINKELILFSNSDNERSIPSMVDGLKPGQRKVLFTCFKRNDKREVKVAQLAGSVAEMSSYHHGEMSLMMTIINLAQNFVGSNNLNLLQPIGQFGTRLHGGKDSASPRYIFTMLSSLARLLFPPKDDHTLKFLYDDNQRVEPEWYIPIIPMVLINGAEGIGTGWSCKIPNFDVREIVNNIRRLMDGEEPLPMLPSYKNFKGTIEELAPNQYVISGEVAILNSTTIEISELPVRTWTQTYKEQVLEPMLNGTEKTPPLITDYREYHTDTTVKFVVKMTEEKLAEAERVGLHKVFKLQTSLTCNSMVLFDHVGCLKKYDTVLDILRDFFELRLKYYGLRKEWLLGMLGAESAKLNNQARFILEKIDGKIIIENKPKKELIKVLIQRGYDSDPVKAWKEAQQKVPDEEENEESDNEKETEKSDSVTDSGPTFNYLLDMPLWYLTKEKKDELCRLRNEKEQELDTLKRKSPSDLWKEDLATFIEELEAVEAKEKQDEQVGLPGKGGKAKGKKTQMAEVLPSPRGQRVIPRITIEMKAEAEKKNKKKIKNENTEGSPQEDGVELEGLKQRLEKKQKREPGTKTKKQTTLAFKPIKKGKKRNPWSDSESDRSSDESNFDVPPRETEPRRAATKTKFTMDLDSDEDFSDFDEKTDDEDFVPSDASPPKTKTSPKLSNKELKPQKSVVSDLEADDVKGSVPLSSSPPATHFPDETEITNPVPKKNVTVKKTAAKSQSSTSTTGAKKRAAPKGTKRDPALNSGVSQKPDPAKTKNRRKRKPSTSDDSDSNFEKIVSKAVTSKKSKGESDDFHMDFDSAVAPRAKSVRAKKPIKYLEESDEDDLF

Huh-7 [5] = test: Antiproliferative activity against human Huh-7 cells assessed as inhibition of cell viability by MTT assay; assay type: functional, cell-based; conditions: time 24-72 hrs, TDE = time-dependent effect
Huh-7 [6] = test: Antiproliferative activity against human Huh-7 cells assessed as inhibition of cell viability treated for 24 to 72 hrs by MTT assay; assay type: functional, cell-based; conditions: time 24-72 hrs, DDE = dose-dependent effect
HCC = test: Inhibition of cell proliferation of human HCC cells treated for 24 hrs by EdU staining based fluorescence microscopy assay; assay type: functional; conditions: dose 3-18 nM, DDE = dose-dependent effect
Huh-7 [7] = test: Induction of cell cycle arrest in human Huh-7 cells assessed as accumulation at G2 phase at 80 nM treated for 24 hrs by PI staining based flow cytometry (reference value: 15.90 %); assay type: functional
Huh-7 [8] = test: Induction of cell cycle arrest in human Huh-7 cells assessed as accumulation at G1 phase at 40 nM treated for 24 hrs by PI staining based flow cytometry (reference value: 60.77 %); assay type: functional
Huh-7 [9] = test: Induction of cell cycle arrest in human Huh-7 cells assessed as accumulation at G1 phase at 10 nM treated for 24 hrs by PI staining based flow cytometry (reference value: 60.77 %); assay type: functional
SK-HEP1 [10] = test: Induction of cell cycle arrest in human SK-Hep1 cells assessed as accumulation at G2 phase at 80 nM treated for 24 hrs by PI staining based flow cytometry (reference value: 16.55 %); assay type: functional
SK-HEP1 [11] = test: Induction of cell cycle arrest in human SK-Hep1 cells assessed as accumulation at G2 phase at 40 nM treated for 24 hrs by PI staining based flow cytometry (reference value: 16.55 %); assay type: functional
SK-HEP1 [12] = test: Induction of cell cycle arrest in human SK-Hep1 cells assessed as accumulation at G2 phase at 10 nM treated for 24 hrs by PI staining based flow cytometry (reference value: 16.55 %); assay type: functional
SK-HEP1 [13] = test: Induction of apoptosis in human SK-Hep1 cells assessed as cell membrane permeability by measuring blue fluorescence incubated for 24 hrs by Hoechst staining based microscopy; assay type: functional; conditions: dose 12-60 nM, DDE = dose-dependent effect
Huh-7 [14] = test: Induction of apoptosis in human Huh-7 cells assessed as late apoptotic cells at 40 nM incubated for 24 hrs by annexin V-FITC/PI staining flow cytometry (reference value: 1.33 %); assay type: functional
Huh-7 [15] = test: Induction of apoptosis in human Huh-7 cells assessed as viable cells at 80 nM incubated for 24 hrs by annexin V-FITC/PI staining flow cytometry (reference value: 97.3 %); assay type: functional; conditions: read-out: Activity
SK-HEP1 [16] = test: Induction of apoptosis in human SK-Hep1 cells assessed as viable cells at 10 nM incubated for 24 hrs by annexin V-FITC/PI staining flow cytometry (reference value: 97.8 %); assay type: functional; conditions: read-out: Activity
SK-HEP1 [17] = test: Induction of apoptosis in human SK-Hep1 cells assessed as viable cells at 80 nM incubated for 24 hrs by annexin V-FITC/PI staining flow cytometry (reference value: 97.8 %); assay type: functional; conditions: read-out: Activity
Huh-7 [18] = test: Inhibition of cell migration in human Huh-7 cells incubated for 24 hrs by scratch wound healing assay; assay type: functional, cell-based; conditions: dose 3-18 nM, DDE = dose-dependent effect
SK-HEP1 [19] = test: Inhibition of cell migration in human SK-HEP1 cells at 3 to 18 nM incubated for 24 hrs by crystal violet staining based transwell assay; assay type: functional; conditions: dose 3-18 nM
HSC-T6 [20] = test: Suppression of TGF-beta-1-stimulated rat HSC-T6 cells activation assessed as reduction in Col-1 levels preincubated with TGFbeta-1 followed by compound addition and measured after 24 to 48 hrs by ELISA; assay type: functional, cell-based; conditions: dose 10-80 nM, time 24-48 hrs, DDE = dose-dependent effect
HSC-T6 [21] = test: Antiproliferative activity against TGF-beta-1-stimulated rat HSC-T6 cells assessed as suppression of cell proliferation at 0.70 to 60 uM preincubated with TGFbeta-1 for 1 day followed by compound addition and measured after 48 hrs; assay type: functional, cell-based; conditions: dose 0.7-60 µM
[22] = Induction of apoptosis in rat HSC-T6 cells assessed as late apoptotic cells at 80 nM pretreated with TGFbeta-1 for 1 day followed by compound addition and measured after 24 hrs by flow cytometry (reference value: 1.76 %); assay type: functional
[23] = Induction of apoptosis in rat HSC-T6 cells assessed as necrotic cells at 80 nM pretreated with TGFbeta-1 for 1 day followed by compound addition and measured after 24 hrs by flow cytometry (reference value: 0.56 %); assay type: functional
Huh-7 [24] = test: Inhibition of cell invasion in human Huh-7 cells at 3 to 18 nM incubated for 24 hrs by matrigel based assay; assay type: functional; conditions: dose 3-18 nM

SMILES	Activity (Huh-7 [1])	IC50 (Huh-7 [2])	inhibition [3]	inhibition [4]	Activity (Huh-7 [5])	Activity (Huh-7 [6])	inhibition (HCC)	Activity (Huh-7 [7])	Activity (Huh-7 [8])	Activity (Huh-7 [9])	Activity (SK-HEP1 [10])	Activity (SK-HEP1 [11])	Activity (SK-HEP1 [12])	Activity (SK-HEP1 [13])	Activity (Huh-7 [14])	viability at 0.08 µM (Huh-7 [15])	viability at 0.01 µM (SK-HEP1 [16])	viability at 0.08 µM (SK-HEP1 [17])	inhibition (Huh-7 [18])	inhibition (SK-HEP1 [19])	further results
O=C1c2cc(F)cc(F)c2N(c2cccc(F)c2)C2c3[nH]c4ccc(O)cc4c3CCN12 (stereo not given)	Active	40 nM	92.5%	67%	Tde	Dde	Dde	78.5%	15.01%	46.78%	83.92%	74.07%	26.65%	Dde	13.5%	58.4%	92.9%	73.4%	Dde	Active	Activity (HSC-T6 [20]): Dde; Activity (HSC-T6 [21]): Active; Activity [22]: 41.8%; Activity [23]: 3.62%; inhibition (Huh-7 [24]): Active
CC(=O)Oc1ccc2[nH]c3c(c2c1)CCN1C(=O)c2cc(F)cc(F)c2N(c2cccc(F)c2)C31 (stereo not given)	Active	30 nM	94%	63.7%	Tde	Dde	Dde	74.38%	28.25%	51.9%	76.35%	70.47%	18.08%	Dde	25.6%	59.7%	86.7%	84%	Dde	Active	Activity (HSC-T6 [20]): Dde; Activity (HSC-T6 [21]): Active; Activity [22]: 53%; Activity [23]: 4.44%; inhibition (Huh-7 [24]): Active

Source: ChEMBL document CHEMBL5154935, “Design, Synthesis, and Biological Evaluation of Novel Evodiamine Derivatives as Potential Antihepatocellular Carcinoma Agents” (J Med Chem, 2022)
